Assay: Degradation of THC during preparation of the chewing gum (extraction and HPLC)
Type: physicochemical
Settings: gum base heated till 90° C.; main breakdown product dihydrocannabinol
Procedure: Samples were prepared by putting one gum in a 10.0 ml glass laboratory tube. 5.00 ml ethanol was added and the tube was shaken 3 times with a 5 minute interval. Then 5.00 ml mobile phase (acetonitrile: H2O+0.1% formic acid) was added. The tube was shaken and the gum was mashed with a Pasteur pipette. Then the solution was shaken again and the sample was filtered through a 0.2 micrometer filter. This is the impurity solution. An assay solution was prepared by diluting the impurity solution 100 times with mobile phase. The calculated amount of THC is based upon comparison with a reference solution with an exactly known amount of THC. Purities are calculated as peak area/sum of area's*100%. Impurities present in the placebo are not considered and known impurities are corrected with known response factors.

CCCCCc1cc(O)c2c(c1)OC(C)(C)[C@@H]1CCC(C)=C[C@@H]21 [THC, (−)-(6aR,10aR)-6,6,9-trimethyl-3-pentyl-6a,7,8,10a-tetrahydro-6H-benzo[c]chromen-1-ol]
degradation of THC during the preparation of the chewing gum: only a slight degradation

— patent US9433601B2, “Chewing gum compositions comprising cannabinoids” (Stichting Sanammad, priority 2008, dated 2016)
